[invAb] = inverted abasic unit; d = 2'-deoxy (DNA); m = 2'-O-methyl; r = 2'-OH (RNA); f = 2'-fluoro
Experiments:
ASK1 mRNA [1] = test: ASK1 mRNA knock-down by siNA in human A549 cells (RNAiMax transfection, Taqman RT-PCR); format: cell-based; conditions: 10 nM siNA, 24 hrs post-transfection, vs non-targeting control, GAPDH-normalized, mean ± S.D., two experiments
Description: A549 (human; ATCC cat #CCL-185): Cells were cultured at 37° C. in the presence of 5% CO2 and grown in Ham's F12K medium with 2 mM L-glutamine adjusted to contain 1.5 g/L sodium bicarbonate and supplemented with fetal bovine serum at a final concentration of 10%, 100 μg/mL of streptomycin, and 100 U/mL penicillin.
(§1) Cells were plated in all wells of a tissue-culture treated, 96-well plate at a final count of 5000 cells/well (A549 cell line) and 3,500 cells/well (Hepal-6 cell line) in 100 μL of the appropriate culture media. The cells were cultured for 24 hours after plating at 37° C. in the presence of 5% CO2.
(§2) After 24 hours, complexes containing siNA and RNAiMax were created as follows: A solution of RNAiMax diluted 33-fold in OPTI-MEM was prepared. In parallel, solutions of the siNAs for testing were prepared to a final concentration of 120 nM in OPTI-MEM. After incubation of RNAiMax/OPTI-MEM solution at room temperature for 5 min, an equal volume of the siRNA solution and the RNAiMax solution were added together for each of the siNAs.
(§3) This solution was incubated at room temperature for 20 minutes. After incubation, 20 uL of the solution was added to each of the relevant wells. The final concentration of siNA in each well was 10 nM and the final volume of RNAiMax in each well was 0.3 ul.
(§4) The time of incubation with the RNAiMax-siNA complexes was 24 hours and there was no change in media between transfection and harvesting, unless otherwise indicated.
(§5) RNA was extracted from a 96-well plate using the TaqMan® Gene Expression Cells-to-CT™ Kit (Cat #4399002) with a modified protocol. Briefly, a 60 uL (1 plate) or 110 uL (2 plates) of the Lysis Solution with DNase I was dispensed into each well of the Lysis Buffer Plate (twin.tec full skirt plate). The lysis buffer and stop plates were stored at 4° C. until the cells were washed.
(§6) The plate was spun at 1100 rpm for 5 minutes. The culture medium was aspirated and discarded from the wells of the culture plate. The lysis was performed automatically using a BioMek FX instrument and method. After the Biomek method was completed, the lysis plate was incubated for 2 min. at room temperature. The lysis plate can be stored for 2 hours at 4° C., or at −20° C. or −80° C. for two months.
(§7) Each well of the reverse transcription plate required 10 uL of 2× reverse transcriptase Buffer, 1 uL of 20× reverse transcription enzyme and 2 uL of nuclease-free water. The reverse transcription master mix was prepared by mixing 2× reverse transcription buffer, 20× reverse transcription enzyme mix, and nuclease-free water. 13 uL of the reverse transcription master mix was dispensed into each well of the reverse transcription plate (semi-skirted). A separate reverse transcription plate was prepared for each cell plate. The plate was loaded onto a Biomek NX or Biomek FX Dual-96 and the Biomek method was run. The program is programmed to automatically added 7 uL of lysate from the cell lysis procedure described above into each well of the reverse transcription plate. The plate is sealed and spun on a centrifuge (1000 rpm for 30 seconds) to settle the contents to the bottom of the reverse transcription plate. The plate is placed in a thermocycler at 37° C. for 60 min, 95° C. for 5 min, and 4° C. until the plate is removed from the thermocycler. Upon removal, if not used immediately, the plate was frozen at −20° C.
(§8) A series of probes and primers were used to detect the various mRNA transcripts of the genes of ASK1, ASK2, and GAPDH in human cell lines and ASK1 and GAPDH in mouse cell lines. All Taqman probes and primers for the experiments were supplied as pre-validated sets by ABI (see Table 2).
(§9) The assays were performed on an ABI 7900 instrument, according to the manufacturer's instructions. A TaqMan Gene Expression Master Mix (provided in the Cells-to-CT™, Applied Biosystems, Cat #4399002) was used. […]

ASK1 mRNA [2] = test: ASK1 mRNA knock-down by siNA in mouse Hepa1-6 cells (RNAiMax transfection, Taqman RT-PCR); format: cell-based; conditions: 10 nM siNA, 24 hrs post-transfection, vs non-targeting control, GAPDH-normalized, mean ± S.D., two experiments
Description: Hepal-6 (murine; ATCC cat #CRL-1830): Cells were cultured at 37° C. in the presence of 5% CO2 and grown in Dulbecco's modified Eagle's medium (DMEM) with 4 mM L-glutamine adjusted to contain 1.5 g/L sodium bicarbonate and 4.5 g/L glucose and supplemented with 10% of fetal bovine serum, 100 μg/mL of streptomycin, and 100 U/mL penicillin.
as §1, §2, §3, §4, §5, §6, §7, §8, §9

Substance	% KD Human (ASK1 mRNA [1]) [%]	% KD Mouse (ASK1 mRNA [2]) [%]
25374-DC: siNA duplex, sense B GcAcuGGGAAcuAcAccuu TTB, antisense AAGGuGuAGuucccAGuGcUU (SEQ ID NO: 29/30), human ASK1 target site 978 (sense GCACUGGGAACUACACCUUTT; antisense AAGGUGUAGUUCCCAGUGCUU; chemistry not fully specified)	19 ± 4	43 ± 12
25375-DC: siNA duplex, sense B GGAuGAAAAuAGAAAccAA TTB, antisense UUGGuuucuAuuuucAuccUU (SEQ ID NO: 31/32), human ASK1 target site 4101 (sense GGAUGAAAAUAGAAACCAATT; antisense UUGGUUUCUAUUUUCAUCCUU; chemistry not fully specified)	76 ± 6	6 ± 13
25377-DC: siNA duplex, sense B GGAAGAccAAGAcAAAAuu TTB, antisense AAUuuuGucuuGGucuuccUU (SEQ ID NO: 35/36), human ASK1 target site 3538 (sense GGAAGACCAAGACAAAAUUTT; antisense AAUUUUGUCUUGGUCUUCCUU; chemistry not fully specified)	80 ± 3	10 ± 2
25378-DC: siNA duplex, sense B cGGAAGAccAAGAcAAAAu TTB, antisense AUUuuGucuuGGucuuccGUU (SEQ ID NO: 37/38), human ASK1 target site 3537 (sense CGGAAGACCAAGACAAAAUTT; antisense AUUUUGUCUUGGUCUUCCGUU; chemistry not fully specified)	79 ± 5	34 ± 2
25380-DC: siNA duplex, sense B GAuGGAAAuucuAAAAAuu TTB, antisense AAUuuuuAGAAuuuccAuCUU (SEQ ID NO: 41/42), human ASK1 target site 4508 (sense GAUGGAAAUUCUAAAAAUUTT; antisense AAUUUUUAGAAUUUCCAUCUU; chemistry not fully specified)	91 ± 0	−7 ± 11
25381-DC: siNA duplex, sense B GcGAGGcccuGcAGAGcuu TTB, antisense AAGcucuGcAGGGccucGcUU (SEQ ID NO: 43/44), human ASK1 target site 690 (sense GCGAGGCCCUGCAGAGCUUTT; antisense AAGCUCUGCAGGGCCUCGCUU; chemistry not fully specified)	70 ± 2	45 ± 2
25382-DC: siNA duplex, sense B ccAGAAcuAAGGccAcAuu TTB, antisense AAUGuGGccuuAGuucuGGUU (SEQ ID NO: 45/46), human ASK1 target site 3875 (sense CCAGAACUAAGGCCACAUUTT; antisense AAUGUGGCCUUAGUUCUGGUU; chemistry not fully specified)	20 ± 4	−26 ± 10
25383-DC: siNA duplex, sense B cuGcuGAucAAGAAGAcuu TTB, antisense AAGUCuucuuGAucAGcAGUU (SEQ ID NO: 47/48), human ASK1 target site 3918 (sense CUGCUGAUCAAGAAGACUUTT; antisense AAGUCUUCUUGAUCAGCAGUU; chemistry not fully specified)	68 ± 7	1 ± 3
25384-DC: siNA duplex, sense B GGAAcAGccuucAAAucAA TTB, antisense UUGAuuuGAAGGcuGuuccUU (SEQ ID NO: 49/50), human ASK1 target site 3958 (sense GGAACAGCCUUCAAAUCAATT; antisense UUGAUUUGAAGGCUGUUCCUU; chemistry not fully specified)	82 ± 1	61 ± 0
25386-DC: siNA duplex, sense B GAGcAAccAAGucAGAAuu TTB, antisense AAUucuGacuuGGuuGcucUU (SEQ ID NO: 53/54), human ASK1 target site 2461 (sense GAGCAACCAAGUCAGAAUUTT; antisense AAUUCUGACUUGGUUGCUCUU; inverted abasic end caps, TT overhang, chemistry not fully specified)	80 ± 1	53 ± 1
25388-DC: siNA duplex, sense B GGuAGAGAcuuuAGAAAAA TTB, antisense UUUuucuAAAGucucuAccUU (SEQ ID NO: 57/58), human ASK1 target site 1360 (sense GGUAGAGACUUUAGAAAAATT; antisense UUUUUCUAAAGUCUCUACCUU; sense: sugars from the 5' end d2 f1 d5 f4 d9, [invAb] at 5' end, 3' end, backbone not given here; antisense: sugars from the 5' end rrrffffmmmmfffffmffmm, backbone not given here)	89 ± 4	32 ± 5
25390-DC: siNA duplex, sense B GGcuGAAGAuuAuAcAcuA TTB, antisense UAGuGuAuAAucuucAGccUU (SEQ ID NO: 61/62), human ASK1 target site 4354 (sense GGCUGAAGAUUAUACACUATT; antisense UAGUGUAUAAUCUUCAGCCUU; chemistry not fully specified)	93 ± 1	−18 ± 14
25391-DC: siNA duplex, sense B cAGAGGccAAGGcAuucAu TTB, antisense AUGAAuGccuuGGccucuGUU (SEQ ID NO: 63/64), human ASK1 target site 3087 (sense CAGAGGCCAAGGCAUUCAUTT; antisense AUGAAUGCCUUGGCCUCUGUU; chemistry not fully specified)	11 ± 38	−3 ± 4
25392-DC: siNA duplex, sense B cAcuGAccGAAAAAucAuA TTB, antisense UAUGAuuuuucGGucAGuGUU (SEQ ID NO: 65/66), human ASK1 target site 3661 (sense CACUGACCGAAAAAUCAUATT; antisense UAUGAUUUUUCGGUCAGUGUU; chemistry not fully specified)	67 ± 6	63 ± 1
25393-DC: siNA duplex, sense B GGuucAAAAAGGcAuuuGA TTB, antisense UCAAAuGccuuuuuGAAccUU (SEQ ID NO: 67/68), human ASK1 target site 1614 (sense GGUUCAAAAAGGCAUUUGATT; antisense UCAAAUGCCUUUUUGAACCUU; chemistry not fully specified)	88 ± 5	77 ± 2
25394-DC: siNA duplex, sense B uucGGAAucAuAAcAucAA TTB, antisense UUGAuGuuAuGAuuccGAAUU (SEQ ID NO: 69/70), human ASK1 target site 3786 (sense UUCGGAAUCAUAACAUCAATT; antisense UUGAUGUUAUGAUUCCGAAUU; chemistry not fully specified)	76 ± 8	60 ± 6
25395-DC: siNA duplex, sense B cuGAuGAcAAGAAAGGuAu TTB, antisense AUAccuuucuuGucAucAGUU (SEQ ID NO: 71/72), human ASK1 target site 2139 (sense CUGAUGACAAGAAAGGUAUTT; antisense AUACCUUUCUUGUCAUCAGUU; chemistry not fully specified)	32 ± 12	6 ± 15

— patent publication US20120010272A1, “RNA Interference Mediated Inhibition of Apoptosis Signal-Regulating Kinase 1 (ASK1) Gene Expression Using Short Interfering Nucleic Acid (siNA)” (Merck Sharp & Dohme Corp., priority 2009, published 2012)
